{"source": "a melting point compilation (Tetko et al.; mined from patent text by program, amines drawn as free bases though some values may be those of a salt)", "data": [{"units": {"melting point": "°C"}, "values": [{"smiles": "O=[N+]([O-])c1ccc(Cl)c(Cl)c1Br", "melting point": 73}, {"smiles": "CC1(c2cccc(Cl)c2)OC(C(=O)O)Oc2ccc(Cl)cc21", "note": "(centres undefined)", "melting point": 131}, {"smiles": "O=C(O)c1ccc(OCCc2c(CCNS(=O)(=O)Cc3ccccc3Cl)n(C(c3ccccc3)c3ccccc3)c3ccc(Cl)cc23)cc1F", "melting point": "132 to 135"}, {"smiles": "CC(C)Nc1nc2cc(F)c(F)cc2n1[C@H]1O[C@@H](CO)[C@H](O)[C@@H]1O", "melting point": "156 to 158"}, {"smiles": "Cc1c(-c2ccc(Cl)cc2)c2cc(OC(C)(C)C(=O)O)ccc2n1C", "melting point": "148 to 149"}, {"smiles": "Nc1cc(C(=O)Cn2c(-c3nonc3N)nc3ccccc32)ccc1Cl", "melting point": "228 to 230"}, {"smiles": "Cc1cccc(CCOc2ccc(C#N)cc2)n1", "melting point": "66 to 67"}, {"smiles": "COc1cc2c(cc1OC)C(C)=[N+]([O-])C(c1cccs1)N2", "note": "(centres undefined)", "melting point": "180 to 185"}, {"smiles": "COc1cc(Nc2nc3c(s2)CCCC3c2ccccc2)ccc1C(N)=O", "note": "(centres undefined)", "melting point": "243 to 246"}, {"smiles": "CCCCCCOc1c(OCCCCCC)c(OC(=O)C(C)(C)C)c2ccccc2c1OC(=O)C(C)(C)C", "melting point": "111 to 112"}, {"smiles": "CCOC(=O)CN(Cc1ccccc1)c1ncnc2c(N3CCOCC3)nc(N3CCC(N(C)C)CC3)nc12", "melting point": "112 to 115"}, {"smiles": "O=C(O)CCc1c(C=C2C(=O)Nc3ccccc32)[nH]c2c1CCCC2", "melting point": "263 to 265"}, {"smiles": "COc1c(OCc2ccccc2)cc(C(=O)Cl)cc1OCc1ccccc1", "melting point": "124 to 127"}, {"smiles": "Nc1ncc(-c2cccc(Nc3ccc(-c4ccoc4)cc3[N+](=O)[O-])c2)cn1", "melting point": "185 to 186"}, {"smiles": "CNC(=O)c1cc(Br)cc(F)c1Nc1nc(Cl)ncc1Cl", "melting point": "246 to 249"}, {"smiles": "CCOC(=O)c1cc(-c2ccc(OC)cc2)[nH]c1N", "melting point": "141 to 142"}, {"smiles": "Fc1cccc(COc2ccc(Nc3ncnc4sc(C#Cc5ncccn5)cc34)cc2Cl)c1", "melting point": 225}, {"smiles": "CCOC(=O)CCn1c(=O)c(=O)[nH]c2cc(C(F)(F)F)c(-n3c(C)ccc3C)cc21", "melting point": "233 to 235"}, {"smiles": "CCCCCOc1ccc(-c2ccc(-c3ccccc3CC)cc2)cc1", "melting point": "62 to 65"}, {"smiles": "COc1cc(F)cc(-c2ccc3c(c2)C(C)(C)OC(=S)N3)c1", "melting point": "170 to 171"}, {"smiles": "O=C1CC=CC(C(=O)O)C1", "note": "(centres undefined)", "melting point": "98 to 101"}, {"smiles": "COC(=O)NC1=NCC(c2ccc(F)cc2)N1C", "note": "(centres undefined)", "melting point": "153 to 155"}, {"smiles": "O=C1N(Cc2cccc(OC(F)(F)F)c2)c2ccccc2C12COc1cc3c(cc12)OCO3", "note": "(centres undefined)", "melting point": "88 to 91"}, {"smiles": "O=C(Nc1cccc([N+](=O)[O-])c1)C(F)(F)C(F)(F)F", "melting point": "111 to 113"}, {"smiles": "CCOC(=O)c1c(COc2cccc(C)n2)nc2cc(OC)c(OC)cc2c1-c1ccc(OC)c(OC)c1", "melting point": "173 to 174"}, {"smiles": "CCc1cc2cc(CC(=O)O)c(Cl)c(Cl)c2s1", "melting point": "179 to 181"}, {"smiles": "Cc1nc(-n2ccc(OCc3ccc(C(F)(F)F)o3)cc2=O)sc1C(=O)O", "melting point": "261 to 263"}, {"smiles": "CC(=O)c1cn(-c2c(Cl)cc(C(F)(F)F)cc2Cl)nc1C(F)(F)F", "melting point": 134}, {"smiles": "OCC1COC2(CC(c3ccccc3)SC(c3ccccc3)C2)O1", "note": "(centres undefined)", "melting point": "116 to 118"}, {"smiles": "O=C(COc1cccc(C(=O)O)c1)NCCNC(=O)COc1cccc(C(=O)O)c1", "melting point": 282}, {"smiles": "COC(=O)C1=C(C)NC(C)=C([N+](=O)[O-])C1c1cccc2ncc(-c3ccccc3)cc12", "note": "(centres undefined)", "melting point": 262}, {"smiles": "CCCn1nc(OCc2ccc3ccccc3n2)cc1COc1c(CC)cccc1CC(=O)O", "melting point": "118 to 119"}, {"smiles": "Cc1nc2ccc(CBr)cc2c(=O)n1COC(=O)C(C)(C)C", "melting point": "144 to 145"}, {"smiles": "CCc1cnc(CSc2cnc(NC(=O)c3ccccc3)s2)o1", "melting point": "122 to 123"}, {"smiles": "NCCOc1cc(Cl)cc(Cl)c1", "melting point": "86 to 89"}, {"smiles": "COC(=O)c1cc(C)c(-c2cccc(OCc3ccc(COC(=O)c4ccccc4)c(COC(=O)c4ccccc4)c3)c2C)c(C)c1", "melting point": "131 to 132"}, {"smiles": "O=C(C1(F)CC1Cc1ccc(Cl)cc1)C1(F)CC1Cc1ccc(Cl)cc1", "note": "(centres undefined)", "melting point": "53 to 54"}, {"smiles": "COc1ccc(C2(C#Cc3ccnc(S(C)(=O)=O)n3)CCC(=O)CC2)cc1OC1CCCC1", "melting point": "60 to 64"}, {"smiles": "CCOC(=O)C(=O)c1csc(NC(=O)Nc2ccc(OC)cc2)n1", "melting point": "193 to 196"}, {"smiles": "N#CN=C(Cc1ccc2c(c1)Nc1nccnc1S2)NCCCC(=O)O", "melting point": "217 to 218"}, {"smiles": "C[Si](C)(C)CCc1nnc(N)nc1N", "melting point": "203 to 204"}, {"smiles": "O=C(N[C@H](Cc1ccc(C(F)(F)F)cc1)[C@@H](O)c1ccc(F)cc1F)c1ccc(F)c2ccccc12", "note": "(racemic)", "melting point": "194 to 195"}, {"smiles": "CCOC(=O)c1c(C(F)(F)F)nc(C(F)(F)Cl)c(C(=O)OC)c1NN1CCCC1", "melting point": "101 to 103"}, {"smiles": "CCOP(=O)(OCC)c1ccc(C(=O)O)cc1", "melting point": 101}, {"smiles": "CCNC(=O)OCCOc1ccc(Oc2ccc(F)cc2)cc1", "melting point": "60 to 62"}, {"smiles": "O=C(O)CCCCC(=O)Nc1ccc(C(=O)NN=C2C(=O)Nc3ccc(I)cc32)cc1", "melting point": 286}, {"smiles": "Nc1cc(-c2nnc(SCc3ccc(F)cc3)o2)ccn1", "melting point": "200 to 201"}, {"smiles": "ClCc1cnc2ccc(Cl)cc2c1Cl", "melting point": "102 to 105"}, {"smiles": "COc1cc(C(C)C)c2c(c1)S(=O)(=O)N(COC(=O)c1c(Cl)ccc(O)c1Cl)C2=O", "melting point": "152 to 154"}, {"smiles": "CN(C(=O)C1CC1)c1cccc(-c2ccnc3c(C(=O)c4ccco4)cnn23)c1", "melting point": "207 to 209"}, {"smiles": "O=C(O)c1ccccc1-c1ccc(Cc2nc(-c3ccccc3)nc3ccccc23)cc1", "melting point": 210}, {"smiles": "CC(=O)SCSc1ncn(C(c2ccccc2)(c2ccccc2)c2ccccc2)n1", "melting point": "124 to 125"}, {"smiles": "FC(F)(c1ccccc1)C(F)(F)c1cccc(Br)c1", "melting point": "72 to 75"}, {"smiles": "CC(NO)C(=O)OC(C)(C)C", "note": "(centres undefined)", "melting point": "69 to 70"}, {"smiles": "O=C1OCCN1CCO", "melting point": "32 to 33"}, {"smiles": "CC(C)(C)[Si](C)(C)Oc1ccc2c(c1)oc(=O)c1c3ccc(O[Si](C)(C)C(C)(C)C)cc3oc21", "melting point": "118 to 119"}, {"smiles": "O=C(O)C(Cc1cccnc1)C(=O)O", "melting point": "128 to 129"}, {"smiles": "CCCCCCCCC1C(=O)NC(=O)N1CCCCCCC(=O)O", "note": "(centres undefined)", "melting point": "65 to 66"}, {"smiles": "Cc1ccc(CS(=O)(=O)c2nc3cscc3[nH]2)nc1", "melting point": 163}, {"smiles": "O=c1cc(COC2CCCCO2)occ1OCc1ccc(CBr)cc1", "note": "(centres undefined)", "melting point": 83.5}, {"smiles": "COC(=O)c1cccc(-c2ccccc2C#N)c1", "melting point": "83 to 85"}, {"smiles": "O=C1c2cc(O)ccc2OCC1Cc1ccccc1", "note": "(centres undefined)", "melting point": "140 to 143"}, {"smiles": "Nc1ccc(C2=Nn3ccnc3Cc3cc4c(cc32)OCO4)cc1", "melting point": "264 to 265"}, {"smiles": "CN1CCN(C(=O)c2cc(N)cc3c2OCCO3)CC1", "melting point": 170}, {"smiles": "ON1C(c2ccccc2)CC2(CC1c1ccccc1)OCCO2", "note": "(centres undefined)", "melting point": "161 to 162"}, {"smiles": "COc1ccc(C(=O)c2ccc(Oc3ccccc3)cc2)cc1", "melting point": "118 to 119"}, {"smiles": "COc1c(Cl)ccc(-c2cc(N)c(Cl)c(C(=O)OCc3ccc(Cl)cc3Cl)n2)c1F", "melting point": "165 to 168"}, {"smiles": "CN1CCOC(=NO)C1=O", "melting point": "199 to 201"}, {"smiles": "Cc1ccc(S(=O)(=O)OCCN2C(=O)c3cccc4cc5ccccc5c(c34)C2=O)cc1", "melting point": 240}, {"smiles": "Cc1noc(NS(=O)(=O)c2ccc(-c3ccc(C(=O)O)cc3)s2)c1Br", "melting point": "219 to 228"}, {"smiles": "O=C(O)C=CC(=S)c1ccc(-c2ccccc2)cc1", "melting point": "157 to 159"}, {"smiles": "CN(C)C=NC(=O)c1cc2c(cn1)[nH]c1ccccc12", "melting point": "254 to 257"}, {"smiles": "CC(C)(C)OC(=O)NCc1cccc2c1C(=O)N(C1CCC(=O)NC1=O)C2=O", "note": "(centres undefined)", "melting point": "180 to 182"}, {"smiles": "CC(C)(C)CNc1cc(Cl)nc(NCC(C)(C)C)n1", "melting point": "95 to 98"}, {"smiles": "Cc1ccc(CCN(C)CCCCCC2Cc3cc(O)ccc3C3C(F)CC4(C)C(O)CCC4C23)cc1", "note": "(centres undefined)", "melting point": "142 to 143"}, {"smiles": "CCc1c(CN(C)S(=O)(=O)c2cccc(Cl)c2)nn(-c2ccc(Cl)cc2Cl)c1-c1ccc(Br)cc1", "melting point": 78}, {"smiles": "CC1OC1C1CC(O)C2(C)CCC3C(CCC4CC(OC5CCCCO5)CC(C)C43C)C12", "note": "(centres undefined)", "melting point": "172 to 174"}, {"smiles": "CSc1cc(CBr)cc(SC)c1", "melting point": "76 to 77"}, {"smiles": "COc1ccc2c(c1)C(c1ccccc1)NN=C2Cc1c(Cl)cncc1Cl", "note": "(centres undefined)", "melting point": "175 to 177"}, {"smiles": "CCOCCOc1cc(C(C)C)c(NC(=O)CN2CCN(CCCSc3nc4ccccc4o3)CC2)c(C(C)C)c1", "melting point": "115 to 117"}, {"smiles": "O=S(=O)(c1ccc(-n2cccc2)cc1)c1cccc2cnccc12", "melting point": "207 to 210"}, {"smiles": "C=CCN(CC=C)C(=O)C(C#N)(CC)c1ccccc1", "note": "(centres undefined)", "melting point": "33 to 35"}, {"smiles": "COc1ccc(N2CCN(C(N)=O)C2=O)cc1OC", "melting point": 240}, {"smiles": "CCCCc1nc2c(N)nc3ccccc3c2n1CCCNC(=O)OC(C)(C)C", "melting point": 193}, {"smiles": "CCc1ccc(C2C(C(=O)c3ccc(C(C)C)cc3)=C(O)C(=O)N2c2ccc(C)nn2)cc1", "note": "(centres undefined)", "melting point": "282 to 284"}, {"smiles": "c1ccc2nc(COc3ccc(Cc4nnn[nH]4)cc3)ccc2c1", "melting point": "173 to 175"}, {"smiles": "O=C(O)[C@H]1C=C[C@H](c2ccccc2)n2c(=O)n(CCCl)c(=O)n21", "note": "(relative stereo)", "melting point": "141 to 143"}, {"smiles": "CC1(C)COC(c2ccccc2-c2ccc(CCl)cc2)=N1", "melting point": "72 to 75"}, {"smiles": "Nc1ncnc2c1ncn2[C@@H]1O[C@H](CSCCO)[C@@H](O)[C@H]1O", "melting point": "198 to 201"}, {"smiles": "Cn1cc(C(=O)O)c(=O)c2cc3cc(F)c(N4CCN(O)CC4)c(F)c3nc21", "melting point": "285 to 288"}, {"smiles": "CCC(=S)NC[C@H]1CN(c2ccc(N3CCN(C(=O)CCC(=O)c4ccc(CN(C)C)cc4)CC3)c(F)c2)C(=O)O1", "melting point": 169}, {"smiles": "OCc1cn(-c2cccc3cccnc23)cn1", "melting point": "168 to 170"}, {"smiles": "O=C(CCc1cc2ccccc2s1)N1C(=O)OC[C@@H]1Cc1ccccc1", "melting point": "119 to 122"}, {"smiles": "Brc1ccc2ccsc2c1", "melting point": "53 to 55"}, {"smiles": "CC(=NN(C1=NNC(=O)CC1)c1ccccc1)c1ccccc1", "melting point": "176 to 178"}, {"smiles": "CCCCN(CCCC)c1nc(-c2ccc(OC)cc2)nc2sc(C#N)c(C)c12", "melting point": "96 to 98"}, {"smiles": "COCCOc1cc(Oc2ccc(C(F)(F)F)cn2)ccc1CCCOc1cc(CCC(=O)O)n(-c2ccccc2)n1", "melting point": "83 to 85"}, {"smiles": "O=C(O)Cc1ccc2c(c1)N(C1CCN(CCc3ccc(F)cc3)CC1)CC2", "melting point": "130 to 132"}, {"smiles": "COC(=O)c1ccc(-c2nc(-c3ccc(OC(F)F)cc3)cs2)cc1", "melting point": "146 to 148"}]}]}
